In a melting point compilation (Tetko et al.; mined from patent text by program, amines drawn as free bases though some values may be those of a salt):

melting point [°C] | SMILES
122 to 125 | CN1Cc2c(Cl)cccc2SCC1=O
139 to 140 | COC(=O)CCCc1cc2cc(Cl)ccc2n1S(=O)(=O)c1ccc2c(c1)OCCN2C
90 | CC(C)(C)OC(=O)c1cc(I)ccc1OCc1ccc2ccccc2c1
216 to 217 | COc1ccc(COC(=O)C2N3C(=O)C(N4C(=O)c5ccccc5C4=O)C3SCC2(C)O)cc1 (configuration not stated)
119 to 120 | CCOC(=O)Cc1c(C)n(Cc2ccc(C(C)(C)C)cc2)c2ccc(OCc3csc(-c4ccccc4)n3)cc12
128 to 130 | O=S(=O)(Nc1cc(Br)c(O)c2ccccc12)c1cccs1
171 to 173 | COc1ccc(CN2CC(COC(c3ccccc3)(c3ccccc3)c3ccccc3)CC2=O)cc1 (configuration not stated)
169 to 170 | CN1CCSC1=NC(=S)Nc1ccccc1
235 to 240 | NC(=O)N1C(=O)C(C(=O)c2sccc2F)c2cc(Cl)ccc21 (configuration not stated)
175 to 178 | O=C1CCN(C2c3ccccc3C=Cc3ccccc32)CC1C(c1ccccc1)c1ccccc1 (configuration not stated)
137 to 139 | O=C(NOCC(O)CN1CCCCC1)Nc1cccc([N+](=O)[O-])c1 (configuration not stated)
196 | CN(C(=O)Nc1ccc2ccccc2c1)c1cccc(-c2ccc(CC3SC(=O)NC3=O)cc2)c1 (configuration not stated)
115 to 119 | CC(C)(C)c1cc(C2=CCSCC2)c(O)c(C(C)(C)C)c1
196 | COc1ccc2sc(C(=O)Nc3ccc(CC(=O)O)cc3)c(OC(C)C)c2c1
89 to 90 | COC(=O)C=Cc1cccc(NC(=O)c2cccn2C)c1
165 to 166 | NC(=O)Cc1ccc2c(c1)CCc1cccnc1S2

melting point [°C] | SMILES
147 to 148 | COc1ccc(C(=O)NNC(=O)C(F)(F)F)cc1
208 to 210 | CC(C)(C)OC(=O)CN1CC(c2ccc3ccccc3c2)SCC(N2C(=O)c3ccccc3C2=O)C1=O (configuration not stated)
124 to 125 | COc1coc2ccc(OCCCCCCN3CCC(O)CC3)cc2c1=O
264 to 267 | COc1cc2c(cc1Br)C(=CNc1ccc(CN3CCCCC3)cc1)C(=O)NC2=O
105 to 107 | CC(C)(C)NC(=O)N1CC(Oc2cccc(C(F)(F)F)c2)C1
291 to 293 | O=C(Nc1ccccc1)NN1CCc2[nH]c(=O)n3nc(-c4ccccc4F)nc3c2C1
197 to 198 | Cc1cccc(Sc2c(O)cc(-c3ccccc3)oc2=O)c1
178 to 180 | CCOC(=O)C1=C(C)Nc2ncn(C(C)C)c(=O)c2C1c1ccccc1F (configuration not stated)
92 to 95 | COC(=O)CCc1ccc(OCc2nc(-c3ccccc3)c(-c3ccccc3)o2)cc1
135 to 137 | Cc1[nH]c2ccccc2c1CCCN1CCC(C(=O)c2ccc(F)cc2)CC1
69 to 76 | COC(=O)CCC(CNC(=O)C(C)(Cc1c[nH]c2ccccc12)NC(=O)OC1C2CC3CC(C2)CC1C3)c1ccccc1 (configuration not stated)
144 to 146 | Cc1oc(COc2ccc(/C=C/C=O)cc2)nc1-c1ccccc1
190 to 191 | COc1ccc(-c2cc(-c3ccccc3)[nH]c2C(=O)NCc2ccc(C(=O)Nc3ncccn3)cc2)cc1
106 to 108 | O=C1O[C@@H](CO)CN1c1cccc(F)c1
196 to 198 | Clc1ccc(N2CCN(Cc3c[nH]c4ncccc34)CC2)nc1
149 to 151 | CC1=Cc2cc(Br)ccc2S1(=O)=O

The next lines start with the molecule.

SMILES | melting point [°C]
CN(C(CCn1c(=O)cc(C(F)(F)F)[nH]c1=O)C(=O)NO)S(=O)(=O)c1ccc(Oc2ccc(Cl)cc2)cc1 (configuration not stated) | 173 to 174
CC(Oc1ccc(Oc2ccc3cc(Cl)ccc3n2)cc1)C(=O)O (configuration not stated) | 130
C#CCNC(=O)C(C#N)=C1CC(C)(C)c2cc(OC)c(OC)cc21 | 202 to 205
CC1(C)C=C(c2ncccn2)c2cc(C#N)ccc2O1 | 108 to 110
Cc1nc2cc(O)c(C)cc2o1 | 198 to 200
Cc1cccc([N+](=O)[O-])c1C(=O)N[C@@H]1c2cc(OC(F)(F)F)ccc2OC(C)(C)[C@H]1O | 204 to 206
O=C1N[C@H](C(=O)O)Cc2cc(O)c(O)cc21 | 268 to 272
CS(=O)(=O)c1ccc(-n2nc(C(F)(F)F)cc2-c2ccc(-c3ccco3)cc2F)cc1 | 223 to 225
CCCCCC[C@H](CC(=O)OC(C)(C)C)C(=O)N1C(=O)OC[C@@H]1C(C)C | 50 to 51
CC(=Cc1ccc(OCc2cccc(Cl)c2)cc1)[N+](=O)[O-] | 117 to 118
Nc1ncc(I)c(N)n1 | 212 to 214
O=c1[nH]cnc2c1ncn2[C@@H]1CO[C@H](CO)C1 | 98
Nc1ccc(S(=O)(=O)Nc2ccc(OP(N)(N)=O)cc2)cc1 | 174 to 175
CCc1cc2[nH]c(=O)c(=O)[nH]c2cc1CC | > 360
COCC(OC(N)=O)c1nc2cc(F)c(OC(C)c3c(Cl)ccc(F)c3Cl)cc2s1 (configuration not stated) | 200 to 205
COc1cc(-c2ccc(O)cc2)ccc1C=O | 159 to 161
COCCN(C)c1cc2ncc(C#N)c(C)c2cc1OC | 90 to 96
COCc1cc(O)nc2nc(N)ccc12 | > 290
O=c1c2ccccc2nc(CCl)n1-c1ccc(Cl)cc1 | 234 to 235
CC(CCc1ccc(Cl)cc1)(Cn1ccnc1)Sc1cc(Cl)ccc1Cl (configuration not stated) | 150

SMILES | melting point [°C]
CC(C)(C)c1cc(-c2nn(CCOC(=O)c3cccnc3)c3ncccc23)cc(C(C)(C)C)c1O | 134 to 136
CCn1c(Cl)nc2cc(C(F)(F)F)c(Cl)c(N)c21 | 134 to 142
CC(=O)N[C@H]1CC[C@H](CCN2CCN(c3ncc(C)c4c3CCO4)CC2)CC1 | 196
CCOC(=O)C(C)Oc1ccc(Oc2cnc3ccc(Cl)cc3c2)cc1 (configuration not stated) | 98
CCn1c(=O)c(C(=O)NC)c(O)c2ccc(C)nc21 | 150 to 154
Fc1cccc(F)c1-c1nccc(-c2ccc(Br)cc2)n1 | 130 to 131
CCOc1ccc(NC=C(C#N)C(=O)Nc2cc(OC)c(Cl)cc2Cl)cc1Br | > 250
Cc1nc(CO)ccc1CO | 94 to 96
CC(C)(C)OC(=O)NC[C@H](O)[C@@H](O)[C@H](O)[C@H](O)CO | 81 to 83
CCNC(=O)c1ccc(CCN2CC=C(c3c[nH]c(-c4ccc(F)cc4)c3-c3ccncc3)CC2)cc1 | 228 to 230
C=CC(=O)NC(C)(C)CS(=O)(=O)OC | 80.6
Cc1cc(-c2ccc(C(F)(F)F)cc2)cnc1N=CN(C)C | 74
CSc1c(Cl)c(-c2cc(SC(C)C(=O)O)c(Cl)cc2Cl)nn1C (configuration not stated) | 180
COc1cc(C(C)C)c2c(c1)S(=O)(=O)N(COC(=O)C(C)(C)C)C2=O | 178 to 179
CCCCCCOc1cc(CC#N)c(OCCCCCC)cc1CC#N | 96 to 97
CC1CC2C3CCC4=CC(=O)C=CC4(C)C3=CCC2(C)C1C(=O)CN1CCN(c2cc(NCC(C)(C)C)nc(NCC(C)(C)C)n2)CC1 (configuration not stated) | 140 to 150
COc1ccc(OC(=O)c2ncn3c2[C@@H]2CCCN2C(=O)c2c(Cl)cccc2-3)cc1 | 210 to 211
CC1(c2ccc(Br)cc2)Cc2cc(OCC(=O)O)c(Cl)c(Cl)c2C1=O (configuration not stated) | 171 to 172
COC(=O)c1cc(F)c(Cl)nc1Nc1ccc(F)cc1F | 137 to 139
CCn1nc(C)cc1N | 95 to 96
